Results reported in PubChem BioAssay AID256 (DTP/NCI, 2004).
Where “and” joins values, the source holds several entries; their conditions need not be identical. Equal values may be shown once. Toxic doses and inconclusive results are not listed. The calls were made as follows: active = survival T/C of 150% or more; inactive = T/C below 125% in these data.

Tested on: CD2F1 mice, L1210 leukemia ip, survival T/C
Experiment: NCI In Vivo Anticancer Drug Screen. Data for tumor model L1210 Leukemia (intraperitoneal) in CD2F1 (CDF1) mice
Conditions: higher = longer survival
Method in brief: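 Read-out first: treated-group measurement over vehicle-control measurement, expressed as a ratio. Animals bore a transplanted tumor line and were dosed with compound or vehicle.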

[1] = endpoint: mean survival time, dose: 100.0 mg/kg/injection, schedule: Q04DX003 (ip), vehicle: saline with Tween-80
[2] = endpoint: mean survival time, dose: 200.0 mg/kg/injection, schedule: Q04DX003 (ip), vehicle: saline with Tween-80
[3] = endpoint: mean survival time, dose: 3.12 mg/kg/injection, schedule: Q01DX009 (ip), vehicle: Klucel (hydroxypropylcellulose) (HPC)
[4] = endpoint: mean survival time, dose: 6.25 mg/kg/injection, schedule: Q01DX009 (ip), vehicle: Klucel (hydroxypropylcellulose) (HPC)
[5] = endpoint: mean survival time, dose: 12.5 mg/kg/injection, schedule: Q01DX009 (ip), vehicle: Klucel (hydroxypropylcellulose) (HPC)
[6] = endpoint: mean survival time, dose: 25.0 mg/kg/injection, schedule: Q01DX009 (ip), vehicle: Klucel (hydroxypropylcellulose) (HPC)
[7] = endpoint: mean survival time, dose: 100.0 mg/kg/injection, schedule: Q04DX003 (ip), vehicle: saline
[8] = endpoint: mean survival time, dose: 200.0 mg/kg/injection, schedule: Q01DX001 (ip), vehicle: saline with Tween-80
[9] = endpoint: mean survival time, dose: 200.0 mg/kg/injection, schedule: Q01DX009 (ip), vehicle: saline with Tween-80
[10] = endpoint: mean survival time, dose: 100.0 mg/kg/injection, schedule: Q01DX009 (ip), vehicle: saline with Tween-80
[11] = endpoint: mean survival time, dose: 50.0 mg/kg/injection, schedule: Q01DX009 (ip), vehicle: saline with Tween-80

Measured: T/C

OC(Cc1cc(CC(O)(C(F)(F)F)C(F)(F)F)ncn1)(C(F)(F)F)C(F)(F)F
inactive: [1] 97 % of control | [2] 93 % of control | endpoint: mean survival time, dose: 400.0 mg/kg/injection, schedule: Q04DX003 (ip), vehicle: saline with Tween-80 91 % of control

CCCCNP1(NCCCC)=NP(NCCCC)(NCCCC)=NP(NCCCC)(NCCCC)=NP(NCCCC)(NCCCC)=N1
inactive: endpoint: median survival time, dose: 12.5 mg/kg/injection, schedule: Q01DX009 (ip), vehicle: saline with Tween-80 107 % of control | endpoint: median survival time, dose: 25.0 mg/kg/injection, schedule: Q01DX009 (ip), vehicle: saline with Tween-80 107 % of control | endpoint: median survival time, dose: 50.0 mg/kg/injection, schedule: Q01DX009 (ip), vehicle: saline with Tween-80 97 % of control

CCOC(=O)c1ccc(NCC2=Nc3c(N)nc(N)nc3NC2)cc1
inactive: endpoint: mean survival time, dose: 12.5 mg/kg/injection, schedule: Q01DX001 (ip), vehicle: carboxymethylcellulose (CMC) 95 % of control | endpoint: mean survival time, dose: 25.0 mg/kg/injection, schedule: Q01DX001 (ip), vehicle: carboxymethylcellulose (CMC) 108 % of control | endpoint: mean survival time, dose: 50.0 mg/kg/injection, schedule: Q01DX001 (ip), vehicle: carboxymethylcellulose (CMC) 96 % of control

CC1(C)CC(=O)C(CSC(=O)c2ccccc2)C(=O)C1
inactive: [3] 96 % of control and 100 % of control | [4] 101 % of control and 105 % of control | [5] 103 % of control and 104 % of control | [6] 100 % of control and 105 % of control | endpoint: mean survival time, dose: 50.0 mg/kg/injection, schedule: Q01DX009 (ip), vehicle: Klucel (hydroxypropylcellulose) (HPC) 102 % of control and 106 % of control | endpoint: mean survival time, dose: 100.0 mg/kg/injection, schedule: Q01DX009 (ip), vehicle: Klucel (hydroxypropylcellulose) (HPC) 102 % of control

COC(=O)c1ccc(NC(=O)Cc2c(O)c3c(c(C)c2OC)COC3=O)cc1N
inactive: endpoint: mean survival time, dose: 100.0 mg/kg/injection, schedule: Q04DX002 (ip), vehicle: saline 100 % of control | endpoint: mean survival time, dose: 200.0 mg/kg/injection, schedule: Q04DX002 (ip), vehicle: saline 112 % of control | endpoint: median survival time, dose: 100.0 mg/kg/injection, schedule: Q04DX002 (ip), vehicle: saline 102 % of control | endpoint: median survival time, dose: 200.0 mg/kg/injection, schedule: Q04DX002 (ip), vehicle: saline 106 % of control

Cc1ccc2c(c1)C(=O)N(CC[P+](c1ccccc1)(c1ccccc1)c1ccccc1)C2=O
inactive: endpoint: mean survival time, dose: 0.39 mg/kg/injection, schedule: Q01DX009 (ip), vehicle: Klucel (hydroxypropylcellulose) (HPC) 105 % of control | endpoint: mean survival time, dose: 0.78 mg/kg/injection, schedule: Q01DX009 (ip), vehicle: Klucel (hydroxypropylcellulose) (HPC) 100 % of control | endpoint: mean survival time, dose: 1.56 mg/kg/injection, schedule: Q01DX009 (ip), vehicle: Klucel (hydroxypropylcellulose) (HPC) 112 % of control | [3] 103 % of control | [4] 105 % of control | [5] 101 % of control | [6] 105 % of control

CCN(CC)CCCC(C)Nc1ncnc(N)c1[N+](=O)[O-] (stereo not given)
inactive: endpoint: mean survival time, dose: 25.0 mg/kg/injection, schedule: Q01DX009 (ip), vehicle: saline 103 % of control | endpoint: mean survival time, dose: 25.0 mg/kg/injection, schedule: Q04DX003 (ip), vehicle: saline 106 % of control | endpoint: mean survival time, dose: 50.0 mg/kg/injection, schedule: Q01DX009 (ip), vehicle: saline 92 % of control | endpoint: mean survival time, dose: 50.0 mg/kg/injection, schedule: Q04DX003 (ip), vehicle: saline 111 % of control | endpoint: mean survival time, dose: 100.0 mg/kg/injection, schedule: Q01DX009 (ip), vehicle: saline 95 % of control | [7] 104 % of control

CC(C)(C)C(NO)C(O)N1CCCCC1 (stereo not given)
inactive: endpoint: mean survival time, dose: 100.0 mg/kg/injection, schedule: Q01DX001 (ip), vehicle: saline 97 % of control | endpoint: mean survival time, dose: 200.0 mg/kg/injection, schedule: Q01DX001 (ip), vehicle: saline 95 % of control

O=c1ccn(C2OC(CO)C(O)C2O)c(/C=C(\O)c2ccccc2)n1 (stereo not given)
inactive: endpoint: mean survival time, dose: 12.5 mg/kg/injection, schedule: Q01DX005 (ip), vehicle: distilled water + Tween-80 105 % of control | endpoint: mean survival time, dose: 25.0 mg/kg/injection, schedule: Q01DX005 (ip), vehicle: distilled water + Tween-80 97 % of control | endpoint: mean survival time, dose: 50.0 mg/kg/injection, schedule: Q01DX005 (ip), vehicle: distilled water + Tween-80 97 % of control | endpoint: mean survival time, dose: 100.0 mg/kg/injection, schedule: Q01DX005 (ip), vehicle: distilled water + Tween-80 102 % of control | endpoint: mean survival time, dose: 200.0 mg/kg/injection, schedule: Q01DX005 (ip), vehicle: distilled water + Tween-80 102 % of control

CCc1ccc(S(=O)(=O)c2ccc(C)cc2)cc1
inactive: endpoint: mean survival time, dose: 75.0 mg/kg/injection, schedule: Q04DX003 (ip), vehicle: saline 100 % of control | endpoint: mean survival time, dose: 150.0 mg/kg/injection, schedule: Q04DX003 (ip), vehicle: saline 100 % of control | endpoint: mean survival time, dose: 300.0 mg/kg/injection, schedule: Q04DX003 (ip), vehicle: saline 100 % of control

O=C(O)c1c2c(nc3ccccc13)-c1ccccc1C1(CCCC1)C2
inactive: [1] 92 % of control | [2] 99 % of control

C[Si](O)(O)CCCCNC(=O)/C=C\C(=O)O
inactive: endpoint: mean survival time, dose: 100.0 mg/kg/injection, schedule: Q04DX003 (ip), vehicle: other 89 % of control | endpoint: mean survival time, dose: 200.0 mg/kg/injection, schedule: Q04DX003 (ip), vehicle: other 93 % of control | endpoint: mean survival time, dose: 400.0 mg/kg/injection, schedule: Q04DX003 (ip), vehicle: other 89 % of control

CCCCCCCCC(C)c1cccc(C(C)CCCCCCCC)c1O (stereo not given)
inactive: [8] 103 % of control | endpoint: mean survival time, dose: 400.0 mg/kg/injection, schedule: Q01DX001 (ip), vehicle: saline with Tween-80 103 % of control

O=C(O)C1CC[N-]CC1.O=C(O)C1CC[N-]CC1.[Cl][Pt+2][Cl]
inactive: endpoint: mean survival time, dose: 50.0 mg/kg/injection, schedule: Q01DX001 (ip), vehicle: saline with Tween-80 110 % of control | [1] 107 % of control | [8] 110 % of control | [9] 97 % of control

N#C/C(=C/Cc1ccccc1)Nc1ccccc1
inactive: [10] 97 % of control | endpoint: mean survival time, dose: 100.0 mg/kg/injection, schedule: Q04DX003 (ip), vehicle: saline sonified 97 % of control | [9] 101 % of control | endpoint: mean survival time, dose: 200.0 mg/kg/injection, schedule: Q04DX003 (ip), vehicle: saline sonified 97 % of control | endpoint: mean survival time, dose: 400.0 mg/kg/injection, schedule: Q01DX009 (ip), vehicle: saline with Tween-80 87 % of control | endpoint: mean survival time, dose: 400.0 mg/kg/injection, schedule: Q04DX003 (ip), vehicle: saline sonified 96 % of control

N#Cc1cc([N+](=O)[O-])ccc1Cl
inactive: [11] 96 % of control | [10] 91 % of control | [1] 105 % of control | [2] 103 % of control

CCCCCCCCCCCCCCCCCC[n+]1ccc(C(=O)c2ccccc2)cc1
inactive: endpoint: mean survival time, dose: 9.38 mg/kg/injection, schedule: Q01DX001 (ip), vehicle: other 109 % of control | endpoint: mean survival time, dose: 18.75 mg/kg/injection, schedule: Q01DX001 (ip), vehicle: other 110 % of control

C[NH-].C[NH-].[Cl][Pt+2][Cl]
inactive: endpoint: mean survival time, dose: 2.5 mg/kg/injection, schedule: Q04DX003 (ip), vehicle: water 91 % of control | endpoint: mean survival time, dose: 5.0 mg/kg/injection, schedule: Q04DX003 (ip), vehicle: water 120 % of control | endpoint: mean survival time, dose: 10.0 mg/kg/injection, schedule: Q04DX003 (ip), vehicle: water 92 % of control

C1C[N-]CC[N-]1.[Cl][Pt+2][Cl]
inactive: endpoint: mean survival time, dose: 7.8 mg/kg/injection, schedule: Q04DX003 (ip), vehicle: saline with Tween-80 97 % of control | endpoint: mean survival time, dose: 62.5 mg/kg/injection, schedule: Q04DX003 (ip), vehicle: saline with Tween-80 90 % of control | endpoint: mean survival time, dose: 125.0 mg/kg/injection, schedule: Q04DX003 (ip), vehicle: saline with Tween-80 94 % of control

CSc1nc(NC(C)C)nc(NC(C)C)n1
inactive: [11] 117 % of control | [10] 109 % of control | [7] 92 % of control | [9] 111 % of control | endpoint: mean survival time, dose: 200.0 mg/kg/injection, schedule: Q04DX003 (ip), vehicle: saline 103 % of control

O=C(CC1CCCCN1)CC1CCCCN1 (stereo not given)
inactive: endpoint: median survival time, dose: 25.0 mg/kg/injection, schedule: Q04DX003 (ip), vehicle: saline 100 % of control | endpoint: median survival time, dose: 50.0 mg/kg/injection, schedule: Q04DX003 (ip), vehicle: saline 100 % of control | endpoint: median survival time, dose: 100.0 mg/kg/injection, schedule: Q04DX003 (ip), vehicle: saline 90 % of control | endpoint: median survival time, dose: 200.0 mg/kg/injection, schedule: Q04DX003 (ip), vehicle: saline 90 % of control
